Test results from patent publication US20180272034A1, “USE OF CSA COMPOUNDS TO PREVENT MICROBIAL BUILD-UP OR FOULING OF MEDICAL IMPLANTS” (BRIGHAM YOUNG UNIVERSITY, priority 2017, published 2018).
Several values for one entry are separate records, joined by “and”; a condition that tells them apart may be missing. Identical values can stand only once.

Key:
[1] = test system: Pseudomonas aeruginosa (PA01); experiment: Coated endotracheal tube segments, daily re-inoculation, growth in medium; assay type: cell-based; set-up: key to bacterial growth in medium, Day 1 / bacterial growth in medium, Day 2 / bacterial growth in medium, Day 3 / bacterial growth in medium, Day 4 / bacterial growth in medium, Day 5 / bacterial growth in medium, Day 6 / bacterial growth in medium, Day 7 / bacterial growth in medium, Day 10 / bacterial growth in medium, Day 8 / bacterial growth in medium, Day 9: N=no growth; G=growth
Protocol: (§1) A hydrogel coating containing 10% CSA-131 HCl and 3% citric acid, relative to the hydrogel solids, was tested for antibacterial efficacy using endotracheal tube segments (5.0 mm). These tube segments (surface area of ca. 1.5 cm^2) were dip coated and cured to give coatings of approximately 10 microns. Coated tube segments were washed in phosphate buffered saline (PBS) for varied amounts of time before testing. Antibacterial testing involved immersing tube segments in 10% TSB in PBS (1.0 mL) and inoculating with Pseudomonas aeruginosa (PA01)@10^6 colony forming units (CFU). Samples were incubated for 24 h, and bacterial growth in the medium was assayed visually (i.e., turbidity in the medium is caused by unrestricted bacterial growth). […] And the converse is true: if growth is supported in the medium that the device is colonized, to some extent.
(§2) After 24 h of incubation, tube segments were immersed in fresh growth media (10% TSB in PBS, 1 mL), re-inoculated, and incubated. […] Experiments were performed in triplicate. N=no growth, G=growth.
(§3) Antibacterial activity of a hydrogel coating (ca. 10 microns) containing CSA-131 2-NDSA (10% by weight relative to hydrogel solids) was determined as described in Example 8 using methicillin-resistant Staphylococcus aureus (MRSA) and Pseudomonas aeruginosa (PA01).

[2] = test system: methicillin-resistant Staphylococcus aureus (MRSA); experiment: as above; assay type: cell-based; set-up: key to bacterial growth in medium, Day 1 / bacterial growth in medium, Day 10 / bacterial growth in medium, Day 2 / bacterial growth in medium, Day 3 / bacterial growth in medium, Day 4 / bacterial growth in medium, Day 5 / bacterial growth in medium, Day 6 / bacterial growth in medium, Day 7 / bacterial growth in medium, Day 8 / bacterial growth in medium, Day 9: N=no growth; G=growth
Protocol: as §1, §2, §3

[3] = test system: PA01; experiment: Drip flow system, whole coated endotracheal tubes; assay type: cell-based, Pseudomonas aeruginosa; settings: hydrogel 10% CSA-131 2-NDSA; three inoculations of 10^7 CFU, 24 h; detection limit 10 CFU
Protocol: At eight-hour intervals, bacteria (PA01, 10^6 CFU/mL) were passed through the tubes for 10 min (total of 10^7 CFU) at each interval. At a time point 30 min after introduction of bacteria, the growth medium flowing through the tubes was collected and plated to determine the number of bacterial colonies present. After 24 h, tubes were removed and sections (5 mm) were cut from above and below the cuff. These were sonicated in a neutralizing medium and the resulting solution was plated to quantify bacterial biofilm growth.

[4] = Hydrogel coating stability and reaction with ethylene oxide (ETO)
Protocol: Releases of CSA-131 from hydrogel-based coatings were investigated, including examining coating stability and reaction of the coating with ethylene oxide (ETO) during sterilization processes. […] To mask this reactivity, coatings were prepared including varies percentages of citric acid to form non-volatile salts of the CSA compound.
Using a jet mill (Fluid Energy), CSA-131 2-NDSA was milled to an average particle size of 200 nm.

[5] = PA01, three replicates, hydrogel coating 10% CSA-131 2-NDSA, re-inoculated every 24 h
[6] = three replicates, hydrogel coating 10% CSA-131 2-NDSA, re-inoculated every 24 h

Structure (SMILES): CCCCCCCCCCCCNCCC[C@@H](C)[C@H]1CC[C@H]2[C@@H]3[C@H](OCCCN)C[C@@H]4C[C@H](OCCCN)CC[C@]4(C)[C@H]3C[C@H](OCCCN)[C@]12C.O=S(=O)(O)c1cccc2c(S(=O)(=O)O)cccc12.O=S(=O)(O)c1cccc2c(S(=O)(=O)O)cccc12 [CSA-131 2-NDSA]
- bacterial growth in medium, Day 1 [1, 5]: N
- bacterial growth in medium, Day 2 [1, 5]: N
- bacterial growth in medium, Day 3 [1, 5]: N
- bacterial growth in medium, Day 4 [1, 5]: N
- bacterial growth in medium, Day 5 [1, 5]: N
- bacterial growth in medium, Day 6 [1, 5]: N
- bacterial growth in medium, Day 7 [1, 5]: N
- bacterial growth in medium, Day 8 [1, 5]: G
- bacterial growth in medium, Day 9 [1, 5]: G
- bacterial growth in medium, Day 10 [1, 5]: G
- time coating prevented bacterial growth ([1]; PA01, hydrogel coating ca. 10 microns, 10% CSA-131 2-NDSA): seven
- time coating prevented bacterial growth ([2]; hydrogel coating ca. 10 microns, 10% CSA-131 2-NDSA): eight
- bacterial growth in medium, Day 1 [2, 6]: N
- bacterial growth in medium, Day 2 [2, 6]: N
- bacterial growth in medium, Day 3 [2, 6]: N
- bacterial growth in medium, Day 4 [2, 6]: N
- bacterial growth in medium, Day 5 [2, 6]: N
- bacterial growth in medium, Day 6 [2, 6]: N
- bacterial growth in medium, Day 7 [2, 6]: G and N (2×)
- bacterial growth in medium, Day 8 [2, 6]: G and N (2×)
- bacterial growth in medium, Day 9 [2, 6]: G
- bacterial growth in medium, Day 10 [2, 6]: G
- bacteria from sonication of tube sections (biofilm) [3]: no bacteria were detected
- bacteria in collected effluent from tubes [3]: no bacteria were detected
- coating stability ([4]; CSA-131 2-NDSA in hydrogel coating): stable coatings
- reaction with ETO during sterilization ([4]; CSA-131 2-NDSA particles (200 nm) in hydrogel coating): did not react with ETO
